Reference: publication PMC9948168, “Vanillin-Based Indolin-2-one Derivative Bearing a Pyridyl Moiety as a Promising Anti-Breast Cancer Agent via Anti-Estrogenic Activity” (ACS Omega, 2023)

How the values were obtained:
Assay in all cases: NCI-60 one-dose screening
Format in all cases: cell-based
CCRF-CEM = conditions: Homo sapiens, Leukemias, read-out: GI (%)
HCC-2998 = conditions: Homo sapiens, HCC-2998, Colon Cancer, read-out: GI (%)
HL-60(TB) = conditions: Homo sapiens, Leukemias, read-out: GI (%)
HOP-92 = conditions: Homo sapiens, HOP-92, Non-Small Cell Lung Cancer, read-out: GI (%)
HS 578T = conditions: Homo sapiens, Breast Cancer, read-out: GI (%)
MCF7 = conditions: Homo sapiens, MCF7, 10 μM; MCF7, Breast Cancer; read-out: GI (%)
MDA-MB-231/ATCC = conditions: Homo sapiens, Breast Cancer, read-out: GI (%)
MDA-MB-468 = conditions: Homo sapiens, MDA-MB-468, Breast Cancer, read-out: GI (%)
NCI-H522 = conditions: Homo sapiens, NCI-H522, Non-Small Cell Lung Cancer, read-out: GI (%)
OVCAR-8 = conditions: Homo sapiens, OVCAR-8, Ovarian Cancer, read-out: GI (%)
PC-3 = conditions: Homo sapiens, PC-3, Prostate Cancer, read-out: GI (%)
RPMI-8226 = conditions: Homo sapiens, RPMI-8226, Leukemias, read-out: GI (%)
SF-268 = conditions: Homo sapiens, SF-268, CNS Cancer, read-out: GI (%)
SK-MEL-28 = conditions: Homo sapiens, SK-MEL-28, Melanoma, read-out: GI (%)
SK-MEL-5 = conditions: Homo sapiens, SK-MEL-5, Melanoma, read-out: GI (%)
SK-OV-3 = conditions: Homo sapiens, SK-OV-3, Ovarian Cancer, read-out: GI (%)
SN12C = conditions: Homo sapiens, Renal Cancer, read-out: GI (%)
SNB-19 = conditions: Homo sapiens, SNB-19, CNS Cancer, read-out: GI (%)
SNB-75 = conditions: Homo sapiens, SNB-75, CNS Cancer, read-out: GI (%)
T-47D = conditions: Homo sapiens, T47D, Breast Cancer, read-out: GI (%)
UACC-62 = conditions: Homo sapiens, UACC-62, Melanoma, read-out: GI (%)

COc1cc(C=C2C(=O)Nc3ccccc32)ccc1OCc1ccccc1 (mixture of isomers) [6a]
inhibition at 10 µM (CCRF-CEM): 9.45%
inhibition at 10 µM (HCC-2998): -19.5%
inhibition at 10 µM (HL-60(TB)): -10.5%
inhibition at 10 µM (HOP-92): 4.67%
inhibition at 10 µM (HS 578T): -7.03%
inhibition at 10 µM (MCF7): 35.7%
inhibition at 10 µM (MDA-MB-231/ATCC): 5.3%
inhibition at 10 µM (MDA-MB-468): 8.69%
inhibition at 10 µM (NCI-H522): 9.6%
inhibition at 10 µM (OVCAR-8): -0.93%
inhibition at 10 µM (PC-3): 5.85%
inhibition at 10 µM (RPMI-8226): 1%
inhibition at 10 µM (SF-268): -1%
inhibition at 10 µM (SK-MEL-28): -5.94%
inhibition at 10 µM (SK-MEL-5): -3.35%
inhibition at 10 µM (SK-OV-3): -10.3%
inhibition at 10 µM (SN12C): 3.52%
inhibition at 10 µM (SNB-19): 0.53%
inhibition at 10 µM (SNB-75): -0.57%
inhibition at 10 µM (T-47D): -13%
inhibition at 10 µM (UACC-62): 7.55%

COc1cc(C=C2C(=O)Nc3ccccc32)ccc1OCc1ccccn1 (mixture of isomers) [6e]
inhibition at 10 µM (CCRF-CEM): 8.27%
inhibition at 10 µM (HCC-2998): -16.2%
inhibition at 10 µM (HL-60(TB)): 13%
inhibition at 10 µM (HOP-92): 28.1%
inhibition at 10 µM (HS 578T): -1.16%
inhibition at 10 µM (MCF7): 50 to 65%
inhibition at 10 µM (MDA-MB-231/ATCC): 18.1%
inhibition at 10 µM (MDA-MB-468): 14.2%
inhibition at 10 µM (NCI-H522): 5.36%
inhibition at 10 µM (OVCAR-8): 0.31%
inhibition at 10 µM (PC-3): 7.05%
inhibition at 10 µM (RPMI-8226): 15.2%
inhibition at 10 µM (SF-268): 6.47%
inhibition at 10 µM (SK-MEL-28): -7.83%
inhibition at 10 µM (SK-MEL-5): 11.7%
inhibition at 10 µM (SK-OV-3): -2%
inhibition at 10 µM (SN12C): 2.56%
inhibition at 10 µM (SNB-19): 9.82%
inhibition at 10 µM (SNB-75): -6.42%
inhibition at 10 µM (T-47D): 15.8%
inhibition at 10 µM (UACC-62): 11.6%

COc1cc(C=C2C(=O)Nc3cc(Cl)ccc32)ccc1OCc1ccc(Cl)cc1 (mixture of isomers) [6l]
inhibition at 10 µM (CCRF-CEM): 3.42%
inhibition at 10 µM (HCC-2998): -18.5%
inhibition at 10 µM (HL-60(TB)): -11.5%
inhibition at 10 µM (HOP-92): 15.3%
inhibition at 10 µM (HS 578T): 4.96%
inhibition at 10 µM (MCF7): 50 to 65%
inhibition at 10 µM (MDA-MB-231/ATCC): 8.37%
inhibition at 10 µM (MDA-MB-468): 4.61%
inhibition at 10 µM (NCI-H522): 4.01%
inhibition at 10 µM (OVCAR-8): 2.85%
inhibition at 10 µM (PC-3): 11.1%
inhibition at 10 µM (RPMI-8226): 11.9%
inhibition at 10 µM (SF-268): -5.63%
inhibition at 10 µM (SK-MEL-28): -1.11%
inhibition at 10 µM (SK-MEL-5): 1.7%
inhibition at 10 µM (SK-OV-3): -0.69%
inhibition at 10 µM (SN12C): 1.62%
inhibition at 10 µM (SNB-19): -5.43%
inhibition at 10 µM (SNB-75): -3.14%
inhibition at 10 µM (T-47D): 14.8%
inhibition at 10 µM (UACC-62): 11.1%

COc1cc(/C=C2/C(=O)Nc3ccccc32)ccc1OCc1ccc(Cl)cc1 [6b]
inhibition at 10 µM (CCRF-CEM): 5.07%
inhibition at 10 µM (HCC-2998): -23.5%
inhibition at 10 µM (HL-60(TB)): -13.4%
inhibition at 10 µM (HOP-92): -12.5%
inhibition at 10 µM (HS 578T): -4.77%
inhibition at 10 µM (MCF7): 30.5%
inhibition at 10 µM (MDA-MB-231/ATCC): 1%
inhibition at 10 µM (MDA-MB-468): -1.64%
inhibition at 10 µM (NCI-H522): 4.25%
inhibition at 10 µM (OVCAR-8): -1.64%
inhibition at 10 µM (PC-3): 5.22%
inhibition at 10 µM (RPMI-8226): 2.49%
inhibition at 10 µM (SF-268): 1.43%
inhibition at 10 µM (SK-MEL-28): 7.06%
inhibition at 10 µM (SK-MEL-5): -2.87%
inhibition at 10 µM (SK-OV-3): -10.5%
inhibition at 10 µM (SN12C): -2.93%
inhibition at 10 µM (SNB-19): 2.91%
inhibition at 10 µM (SNB-75): -3.58%
inhibition at 10 µM (T-47D): -6.94%
inhibition at 10 µM (UACC-62): 12.4%

COc1cc(/C=C2/C(=O)Nc3cc(Cl)ccc32)ccc1OCc1ccc(F)cc1 [6m]
inhibition at 10 µM (HCC-2998): 3.17%
inhibition at 10 µM (HL-60(TB)): -20.4%
inhibition at 10 µM (HOP-92): 10.8%
inhibition at 10 µM (HS 578T): 8.25%
inhibition at 10 µM (MCF7): 42.9%
inhibition at 10 µM (MDA-MB-231/ATCC): 7.87%
inhibition at 10 µM (MDA-MB-468): 7.02%
inhibition at 10 µM (NCI-H522): 7.08%
inhibition at 10 µM (OVCAR-8): 1.34%
inhibition at 10 µM (PC-3): 13%
inhibition at 10 µM (RPMI-8226): -13.2%
inhibition at 10 µM (SF-268): -0.8%
inhibition at 10 µM (SK-MEL-28): -5.13%
inhibition at 10 µM (SK-MEL-5): 1.04%
inhibition at 10 µM (SK-OV-3): 2.75%
inhibition at 10 µM (SN12C): 4.13%
inhibition at 10 µM (SNB-19): -3.75%
inhibition at 10 µM (SNB-75): -4.47%
inhibition at 10 µM (T-47D): 5.94%
inhibition at 10 µM (UACC-62): 11.2%
